Results reported in US8192962B2, “Processes for detecting toxic substances” (Daikin Industries, Ltd., priority 2001, dated 2012).

Test system: Genes belonging to other category
Experiment: DNA chip mRNA expression in yeast, genes belonging to other category (Table 9)
Type: cell-based, Saccharomyces cerevisiae S288C
Outline: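 Measured as treated-to-untreated fluorescence ratio on a full-genome yeast DNA chip. Cells (S288C, YPD, 25° C.) were exposed in log phase for two hours to one chemical, dosed to curb growth without killing.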

Na2As [(1)]
The level of expressed mRNA in the presence of chemical substance/The level of expressed mRNA in the absence of chemical substance (yeast gene YKL008C): 1.2
The level of expressed mRNA in the presence of chemical substance/The level of expressed mRNA in the absence of chemical substance (yeast gene YKL013C): 1.4
The level of expressed mRNA in the presence of chemical substance/The level of expressed mRNA in the absence of chemical substance (yeast gene YKL039W): 0.8
The level of expressed mRNA in the presence of chemical substance/The level of expressed mRNA in the absence of chemical substance (yeast gene YKL041W): 1.2
The level of expressed mRNA in the presence of chemical substance/The level of expressed mRNA in the absence of chemical substance (yeast gene YKL096W): 1.4
The level of expressed mRNA in the presence of chemical substance/The level of expressed mRNA in the absence of chemical substance (yeast gene YKL139W): 0.9
The level of expressed mRNA in the presence of chemical substance/The level of expressed mRNA in the absence of chemical substance (yeast gene YKL165C): 0.5
The level of expressed mRNA in the presence of chemical substance/The level of expressed mRNA in the absence of chemical substance (yeast gene YKL193C): 1.3
The level of expressed mRNA in the presence of chemical substance/The level of expressed mRNA in the absence of chemical substance (yeast gene YLR120C): 1.2
The level of expressed mRNA in the presence of chemical substance/The level of expressed mRNA in the absence of chemical substance (yeast gene YLR136C): 1.3
The level of expressed mRNA in the presence of chemical substance/The level of expressed mRNA in the absence of chemical substance (yeast gene YLR178C): 1.7
The level of expressed mRNA in the presence of chemical substance/The level of expressed mRNA in the absence of chemical substance (yeast gene YLR250W): 1.5
The level of expressed mRNA in the presence of chemical substance/The level of expressed mRNA in the absence of chemical substance (yeast gene YLR327C): 5.5
The level of expressed mRNA in the presence of chemical substance/The level of expressed mRNA in the absence of chemical substance (yeast gene YLR356W): 1.0
The level of expressed mRNA in the presence of chemical substance/The level of expressed mRNA in the absence of chemical substance (yeast gene YLR362W): 1.1
The level of expressed mRNA in the presence of chemical substance/The level of expressed mRNA in the absence of chemical substance (yeast gene YLR429W): 0.7
The level of expressed mRNA in the presence of chemical substance/The level of expressed mRNA in the absence of chemical substance (yeast gene YMR004W): 0.9
The level of expressed mRNA in the presence of chemical substance/The level of expressed mRNA in the absence of chemical substance (yeast gene YMR094W): 1.0
The level of expressed mRNA in the presence of chemical substance/The level of expressed mRNA in the absence of chemical substance (yeast gene YMR104C): 1.9
The level of expressed mRNA in the presence of chemical substance/The level of expressed mRNA in the absence of chemical substance (yeast gene YMR219W): 0.7
The level of expressed mRNA in the presence of chemical substance/The level of expressed mRNA in the absence of chemical substance (yeast gene YMR226C): 1.1
The level of expressed mRNA in the presence of chemical substance/The level of expressed mRNA in the absence of chemical substance (yeast gene YMR275C): 0.7
The level of expressed mRNA in the presence of chemical substance/The level of expressed mRNA in the absence of chemical substance (yeast gene YMR276W): 0.6
The level of expressed mRNA in the presence of chemical substance/The level of expressed mRNA in the absence of chemical substance (yeast gene YNL006W): 1.1
The level of expressed mRNA in the presence of chemical substance/The level of expressed mRNA in the absence of chemical substance (yeast gene YNL007C): 0.7
The level of expressed mRNA in the presence of chemical substance/The level of expressed mRNA in the absence of chemical substance (yeast gene YNL093W): 2.1
The level of expressed mRNA in the presence of chemical substance/The level of expressed mRNA in the absence of chemical substance (yeast gene YNL333W): 1.0
The level of expressed mRNA in the presence of chemical substance/The level of expressed mRNA in the absence of chemical substance (yeast gene YNR010W): 1.3
The level of expressed mRNA in the presence of chemical substance/The level of expressed mRNA in the absence of chemical substance (yeast gene YNR069C): 1.5
The level of expressed mRNA in the presence of chemical substance/The level of expressed mRNA in the absence of chemical substance (yeast gene YOL013C): 0.9
The level of expressed mRNA in the presence of chemical substance/The level of expressed mRNA in the absence of chemical substance (yeast gene YOL164W): 0.9
The level of expressed mRNA in the presence of chemical substance/The level of expressed mRNA in the absence of chemical substance (yeast gene YOR036W): 1.8
The level of expressed mRNA in the presence of chemical substance/The level of expressed mRNA in the absence of chemical substance (yeast gene YOR117W): 0.8
The level of expressed mRNA in the presence of chemical substance/The level of expressed mRNA in the absence of chemical substance (yeast gene YOR124C): 0.6
The level of expressed mRNA in the presence of chemical substance/The level of expressed mRNA in the absence of chemical substance (yeast gene YOR132W): 0.9
The level of expressed mRNA in the presence of chemical substance/The level of expressed mRNA in the absence of chemical substance (yeast gene YOR157C): 1.0
The level of expressed mRNA in the presence of chemical substance/The level of expressed mRNA in the absence of chemical substance (yeast gene YOR181W): 1.0
The level of expressed mRNA in the presence of chemical substance/The level of expressed mRNA in the absence of chemical substance (yeast gene YOR185C): 1.1
The level of expressed mRNA in the presence of chemical substance/The level of expressed mRNA in the absence of chemical substance (yeast gene YOR198C): 1.0
The level of expressed mRNA in the presence of chemical substance/The level of expressed mRNA in the absence of chemical substance (yeast gene YOR259C): 0.8
The level of expressed mRNA in the presence of chemical substance/The level of expressed mRNA in the absence of chemical substance (yeast gene YOR261C): 1.0
The level of expressed mRNA in the presence of chemical substance/The level of expressed mRNA in the absence of chemical substance (yeast gene YOR288C): 0.9
The level of expressed mRNA in the presence of chemical substance/The level of expressed mRNA in the absence of chemical substance (yeast gene YOR355W): 0.7
The level of expressed mRNA in the presence of chemical substance/The level of expressed mRNA in the absence of chemical substance (yeast gene YOR383C): 0.9
The level of expressed mRNA in the presence of chemical substance/The level of expressed mRNA in the absence of chemical substance (yeast gene YPL089C): 1.2
The level of expressed mRNA in the presence of chemical substance/The level of expressed mRNA in the absence of chemical substance (yeast gene YPL109C): 1.1
The level of expressed mRNA in the presence of chemical substance/The level of expressed mRNA in the absence of chemical substance (yeast gene YPL149W): 1.5
The level of expressed mRNA in the presence of chemical substance/The level of expressed mRNA in the absence of chemical substance (yeast gene YPL154C): 0.7
The level of expressed mRNA in the presence of chemical substance/The level of expressed mRNA in the absence of chemical substance (yeast gene YPR103W): 0.7
The level of expressed mRNA in the presence of chemical substance/The level of expressed mRNA in the absence of chemical substance (yeast gene YPR108W): 0.8
